Data published in the supplement of paper PMC6045584.
± gives the standard deviation of the averaged measurements.

Assays:
[1] = compound: T1, CC[C@@]1(O)C(=O)OCc2c1cc1n(c2=O)Cc2cc3ccccc3nc2-1 [CAMPTOTHECIN]; assay: surviving fraction relative to DMSO-only wells; higher = less growth inhibition; details: exposure time: 5 days
Procedure, shortened: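 At 250–500 cells per well in 384-well plates, log-phase tumour cell lines were seeded and, 24 hours on, exposed continuously for five days to inhibitors at 0.5, 1, 5, 10, 50, 100, 500 and 1000 nM. Viability readout was CellTiter-Glo luminescence, reported as surviving fraction normalised to the median of DMSO-only wells.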

[2] = compound: CC(=O)O[C@H]1C(=O)[C@@]2(C)[C@H]([C@H](OC(=O)c3ccccc3)[C@]3(O)C[C@H](OC(=O)[C@H](O)[C@@H](NC(=O)c4ccccc4)c4ccccc4)C(C)=C1C3(C)C)[C@]1(OC(C)=O)CO[C@@H]1C[C@@H]2O [PACLITAXEL]; assay: area under dose-response curve of surviving fraction (unscaled, Aref=0) (surviving fraction x log10(nM)); higher = more resistant; details: exposure time: 5 days; dose range 0.5-1000 nM
Procedure, shortened: (§1)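 Inhibitor was applied to tumour cell lines at eight concentrations (0.5 to 1000 nM) for five days in 384-well plates. Luminescence from CellTiter-Glo, scaled to DMSO-only wells, gave surviving fractions in three screens per line, and these were fitted by 3-parameter logistic regression with the drc R package. The area under the curve is an unscaled activity area. Aref was 0, and dose was on a log10 scale.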

[3] = compound: COCC[n+]1c2c(n(Cc3cnccn3)c1C)C(=O)c1ccccc1C2=O [YM155]; assay: as above; details: exposure time: 5 days; dose range 0.5-1000 nM
Procedure, shortened: as §1

[4] = compound: C[C@]1(O)C[C@@H](c2nc(-c3ccc4ccc(-c5ccccc5)nc4c3)c3c(N)nccn32)C1 [OSI-906]; assay: as above; details: exposure time: 5 days; dose range 0.5-1000 nM
Procedure, shortened: as §1

[5] = compound: CC(=O)c1c(C)c2cnc(Nc3ccc(N4CCNCC4)cn3)nc2n(C2CCCC2)c1=O; assay: as above; details: exposure time: 5 days; dose range 0.5-1000 nM
Procedure, shortened: as §1

[6] = compound: Cc1ccc(-c2cc(C(F)(F)F)nn2-c2ccc(S(N)(=O)=O)cc2)cc1 [CELECOXIB]; assay: as above; details: exposure time: 5 days; dose range 0.5-1000 nM
Procedure, shortened: as §1

[7] = compound: CC(=O)NCC(=O)N1[C@@H]2CC[C@H]1c1ccc(Nc3ncc(C(F)(F)F)c(NC4CCC4)n3)cc12; assay: as above; details: exposure time: 5 days; dose range 0.5-1000 nM
Procedure, shortened: as §1

[8] = compound: COc1cc2ncnc(Nc3ccc(F)c(Cl)c3)c2cc1OCCCN1CCOCC1 [GEFITINIB]; assay: as above; details: exposure time: 5 days; dose range 0.5-1000 nM
Procedure, shortened: as §1

[9] = compound: T1, CAMPTOTHECIN; assay: as above; details: exposure time: 5 days; dose range 0.5-1000 nM
Procedure, shortened: as §1

[10] = compound: O=C(O)C1(C(=O)O)CCC1.[NH2-].[NH2-].[Pt+2] [CARBOPLATIN]; assay: as above; details: exposure time: 5 days; dose range 0.5-1000 nM
Procedure, shortened: as §1

Test System	surviving fraction ([1]; 0.5 nM)	surviving fraction ([1]; 1 nM)	surviving fraction ([1]; 5 nM)	surviving fraction ([1]; 10 nM)	surviving fraction ([1]; 50 nM)	surviving fraction ([1]; 100 nM)	surviving fraction ([1]; 500 nM)	surviving fraction ([1]; 1000 nM)	area under dose-response curve [2]	area under dose-response curve [3]	area under dose-response curve [4]	area under dose-response curve [5]	area under dose-response curve [6]	area under dose-response curve [7]	area under dose-response curve [8]	area under dose-response curve [9]	area under dose-response curve [10]
MG63 BONE	0.873 ± 0.015	0.871 ± 0.028	0.434 ± 0.019	0.295 ± 0.0068	0.0393 ± 0.0065	0.024 ± 0.001	0.02 ± 0.001	0.023 ± 0.001	0.809	1.43	3.11	3.25	3.57	2.52	3.47	0.972	–
RDES SOFT TISSUE	0.776 ± 0.076	0.735 ± 0.1	0.027 ± 0.001	0.0233 ± 0.00058	0.0347 ± 0.0011	0.0297 ± 0.0015	0.0263 ± 0.0011	0.0357 ± 0.0011	1.03	1.4	2.76	–	3.85	2.44	3.69	0.518	3.72
S68 BREAST	0.576 ± 0.087	0.544 ± 0.073	0.442 ± 0.11	0.342 ± 0.041	0.284 ± 0.045	0.218 ± 0.021	0.0747 ± 0.012	0.0687 ± 0.0057	0.758	1.4	2.83	–	3.75	2.38	2.99	1.05	3.8
SCC003 HEADNECK	0.817 ± 0.034	0.868 ± 0.085	0.849 ± 0.065	0.786 ± 0.094	0.361 ± 0.052	0.218 ± 0.029	0.07 ± 0.0061	0.054 ± 0.004	1.13	1.38	3.08	3.56	3.59	2.69	2.89	1.77	–
SCC47 HEADNECK	0.917 ± 0.019	0.924 ± 0.086	0.959 ± 0.019	0.919 ± 0.016	0.46 ± 0.012	0.375 ± 0.029	0.204 ± 0.0038	0.118 ± 0.0095	1.02	1.31	3.41	–	3.63	2.87	3	2.11	–
SG27 HEADNECK	0.702 ± 0.062	0.888 ± 0.19	0.867 ± 0.089	0.906 ± 0.021	0.724 ± 0.034	0.928 ± 0.096	0.482 ± 0.055	0.203 ± 0.025	3.02	1.43	–	3.52	3.88	3.14	3.65	2.66	3.6
SG28 HEADNECK	0.21 ± 0.068	0.771 ± 0.12	0.579 ± 0.056	0.696 ± 0.099	0.337 ± 0.015	0.55 ± 0.044	0.211 ± 0.04	0.102 ± 0.0035	2.04	–	–	3.43	–	2.96	–	–	–
SG31 HEADNECK	0.444 ± 0.03	0.911 ± 0.064	0.607 ± 0.074	0.715 ± 0.1	0.376 ± 0.021	0.37 ± 0.049	0.189 ± 0.017	0.133 ± 0.018	1.44	1.96	2.94	3.36	4.19	2.85	–	1.58	3.73
SIHA CERVIX	0.822 ± 0.017	0.889 ± 0.024	0.857 ± 0.033	0.539 ± 0.1	0.44 ± 0.039	0.377 ± 0.0053	0.099 ± 0.0017	0.0593 ± 0.0023	0.974	1.48	3.17	–	3.52	2.88	3.44	1.73	3.82
SJSA1 BONE	1.18 ± 0.043	1.2 ± 0.06	1.01 ± 0.15	1.2 ± 0.017	1.25 ± 0.084	1.11 ± 0.093	1.14 ± 0.24	1.18 ± 0.083	1.01	5.19	–	3.43	5.36	3.02	–	3.83	4.73
SNU475 LIVER	0.34 ± 0.0091	0.828 ± 0.034	0.635 ± 0.0066	0.482 ± 0.023	0.162 ± 0.0079	0.194 ± 0.012	0.103 ± 0.0081	0.104 ± 0.0085	0.893	1.91	3.01	3.4	3.49	2.85	–	1.18	3.44
SUM44 BREAST	0.808 ± 0.15	0.813 ± 0.082	0.835 ± 0.11	0.846 ± 0.056	0.985 ± 0.12	0.927 ± 0.096	0.326 ± 0.038	0.231 ± 0.048	1.04	2.05	–	3.41	4.41	3.75	4.14	2.82	3.73
SUM159 BREAST	0.915 ± 0.014	0.937 ± 0.015	0.793 ± 0.018	0.26 ± 0.0036	0.1303 ± 0.00058	0.0763 ± 0.0031	0.03 ± 0.001	0.0283 ± 0.00058	1.29	1.25	3.15	3.03	3.58	2.79	3.52	1.29	–
U2OS BONE	0.924 ± 0.055	0.943 ± 0.054	0.948 ± 0.025	0.733 ± 0.03	0.567 ± 0.011	0.464 ± 0.0056	0.121 ± 0.013	0.0677 ± 0.0097	1.15	1.16	3.08	3.41	3.42	2.43	–	2.05	3.52
VCAP PROSTATE	0.879 ± 0.094	0.902 ± 0.052	0.801 ± 0.1	0.508 ± 0.034	0.412 ± 0.028	0.4023 ± 0.0023	0.219 ± 0.034	0.158 ± 0.069	0.687	0.945	2.78	–	–	2.52	3.75	1.76	3.55
VP229 BREAST	0.862 ± 0.018	0.912 ± 0.14	0.794 ± 0.17	0.662 ± 0.14	0.569 ± 0.037	0.348 ± 0.084	0.0443 ± 0.01	0.0333 ± 0.0031	1.56	1.79	2.77	–	4.03	2.78	2.63	1.81	3.55
ZR751 BREAST	0.774 ± 0.073	0.823 ± 0.12	0.693 ± 0.13	0.586 ± 0.099	0.266 ± 0.024	0.223 ± 0.005	0.121 ± 0.0096	0.0797 ± 0.0025	1.6	1.2	2.62	3.47	3.57	2.96	–	1.47	3.96
